Source: article PMC5218480 (PLoS ONE, 2017)

Tested on: MV-4-11 cells
Experiment: Gene expression microarray analysis (Affymetrix PrimeView) and GSEA
Format: cell-based, human
Parameters: RFU PODN (11730768_x_at) / Fold change /veh PODN (11730768_x_at) / RFU LINC00158 (11744669_a_at) / Fold change /veh LINC00158 (11744669_a_at) / RFU DUSP10 (11751237_a_at) / Fold change /veh DUSP10 (11751237_a_at) / RFU ID3 (11757404_x_at) / Fold change /veh ID3 (11757404_x_at) / RFU PLEKHG5 (11737974_s_at) / Fold change /veh PLEKHG5 (11737974_s_at) / RFU LRRC4B (11730491_at) / Fold change /veh LRRC4B (11730491_at) / RFU GIMAP4 (11747438_a_at) / Fold change /veh GIMAP4 (11747438_a_at) / RFU KRT8 (11758183_x_at) / Fold change /veh KRT8 (11758183_x_at) / RFU CNN1 (11734310_a_at) / Fold change /veh CNN1 (11734310_a_at) / RFU VPS37D (11726825_at) / Fold change /veh VPS37D (11726825_at) / RFU C10orf10 (11716522_x_at) / Fold change /veh C10orf10 (11716522_x_at) / RFU KIR2DL2 /// KIR2DL4 /// KIR2DL5A /// KIR2DL5B /// KIR2DS1 /// KIR2DS2 /// KIR2DS3 /// KIR2DS4 /// KIR3DL3 /// KIR3DL3 /// KIR3DS1 (11738374_at) / Fold change /veh KIR2DL2 /// KIR2DL4 /// KIR2DL5A /// KIR2DL5B /// KIR2DS1 /// KIR2DS2 /// KIR2DS3 /// KIR2DS4 /// KIR3DL3 /// KIR3DL3 /// KIR3DS1 (11738374_at) / RFU C1QL1 (11718748_at) / Fold change /veh C1QL1 (11718748_at) / RFU TMPRSS4 (11747572_a_at) / Fold change /veh TMPRSS4 (11747572_a_at) / RFU HAMP (11756126_x_at) / Fold change /veh HAMP (11756126_x_at) / RFU RNFT2 (11725882_a_at) / Fold change /veh RNFT2 (11725882_a_at) / RFU NR4A2 (11747474_a_at) / Fold change /veh NR4A2 (11747474_a_at) / RFU ABCC12 (11746883_a_at) / Fold change /veh ABCC12 (11746883_a_at) / RFU TMEM136 (11760407_x_at) / Fold change /veh TMEM136 (11760407_x_at) / RFU CLDN22 /// WWC2 (11732394_at) / Fold change /veh CLDN22 /// WWC2 (11732394_at) / RFU HLA-DPB1 (11760878_x_at) / Fold change /veh HLA-DPB1 (11760878_x_at) / RFU SPINT1 (11716480_a_at) / Fold change /veh SPINT1 (11716480_a_at) / RFU GAP43 (11754022_s_at) / Fold change /veh GAP43 (11754022_s_at) / RFU A4GNT (11735810_at) / Fold change /veh A4GNT (11735810_at) / RFU PRB3 (11715151_x_at) / Fold change /veh PRB3 (11715151_x_at) / RFU TUBB4B (11761932_at) / Fold change /veh TUBB4B (11761932_at) / RFU CAPN14 (11732068_a_at) / Fold change /veh CAPN14 (11732068_a_at) / RFU TMCC2 (11721928_a_at) / Fold change /veh TMCC2 (11721928_a_at) / RFU IRGQ (11745062_a_at) / Fold change /veh IRGQ (11745062_a_at) / RFU FAM174B (11720279_a_at) / Fold change /veh FAM174B (11720279_a_at) / RFU TMPRSS4 (11748680_a_at) / Fold change /veh TMPRSS4 (11748680_a_at) / RFU FAM212B (11763350_a_at) / Fold change /veh FAM212B (11763350_a_at) / RFU PLEKHG5 (11743358_a_at) / Fold change /veh PLEKHG5 (11743358_a_at) / RFU ZSCAN30 (11745921_a_at) / Fold change /veh ZSCAN30 (11745921_a_at) / RFU CMKLR1 (11741424_a_at) / Fold change /veh CMKLR1 (11741424_a_at) / RFU LOC101060620 /// MAPK8IP1 (11723275_at) / Fold change /veh LOC101060620 /// MAPK8IP1 (11723275_at) / RFU SPTSSB (11747773_x_at) / Fold change /veh SPTSSB (11747773_x_at) / RFU PRSS12 (11739890_at) / Fold change /veh PRSS12 (11739890_at) / RFU BIN1 (11741810_x_at) / Fold change /veh BIN1 (11741810_x_at) / RFU WNT11 (11732464_a_at) / Fold change /veh WNT11 (11732464_a_at) / RFU C10orf10 (11716521_a_at) / Fold change /veh C10orf10 (11716521_a_at) / RFU C5orf56 (11738089_at) / Fold change /veh C5orf56 (11738089_at) / RFU CYB561 (11721691_x_at) / Fold change /veh CYB561 (11721691_x_at) / RFU ANKRD19P (11752326_a_at) / Fold change /veh ANKRD19P (11752326_a_at) / RFU OR2T12 /// OR2T33 /// OR2T8 (11738714_s_at) / Fold change /veh OR2T12 /// OR2T33 /// OR2T8 (11738714_s_at) / RFU VCAN (11748164_a_at) / Fold change /veh VCAN (11748164_a_at) / RFU JSRP1 (11732532_at) / Fold change /veh JSRP1 (11732532_at) / RFU KRTAP10-11 (11738290_x_at) / Fold change /veh KRTAP10-11 (11738290_x_at) / RFU MYO3A (11730013_a_at) / Fold change /veh MYO3A (11730013_a_at) / RFU EBF3 (11725865_a_at) / Fold change /veh EBF3 (11725865_a_at) / RFU CAMK2N1 (11719241_x_at) / Fold change /veh CAMK2N1 (11719241_x_at) / RFU C5orf56 (11738088_a_at) / Fold change /veh C5orf56 (11738088_a_at) / RFU OLFML3 (11715873_a_at) / Fold change /veh OLFML3 (11715873_a_at) / RFU LOC100653217 /// NTM (11731650_a_at) / Fold change /veh LOC100653217 /// NTM (11731650_a_at) / RFU MAPK11 (11762145_a_at) / Fold change /veh MAPK11 (11762145_a_at) / RFU FIZ1 (11724087_x_at) / Fold change /veh FIZ1 (11724087_x_at) / RFU OASL (11726364_x_at) / Fold change /veh OASL (11726364_x_at) / RFU SOX15 (11748057_x_at) / Fold change /veh SOX15 (11748057_x_at) / RFU CD79A (11719716_a_at) / Fold change /veh CD79A (11719716_a_at) / RFU HIST1H1D (11736915_at) / Fold change /veh HIST1H1D (11736915_at) / RFU CASKIN2 (11723855_a_at) / Fold change /veh CASKIN2 (11723855_a_at) / RFU LOC730098 (11760151_x_at) / Fold change /veh LOC730098 (11760151_x_at) / RFU OR4N2 (11742367_at) / Fold change /veh OR4N2 (11742367_at) / RFU PRRT2 (11749266_a_at) / Fold change /veh PRRT2 (11749266_a_at) / RFU SNX32 (11753110_a_at) / Fold change /veh SNX32 (11753110_a_at) / RFU CDHR5 (11726645_a_at) / Fold change /veh CDHR5 (11726645_a_at) / RFU RCAN1 (11760418_a_at) / Fold change /veh RCAN1 (11760418_a_at) / RFU FAM167A (11723789_a_at) / Fold change /veh FAM167A (11723789_a_at) / RFU FAM26E (11764081_at) / Fold change /veh FAM26E (11764081_at) / RFU ISYNA1 (11749810_s_at) / Fold change /veh ISYNA1 (11749810_s_at) / RFU ACY1 (11761880_at) / Fold change /veh ACY1 (11761880_at) / RFU 11764098_at / Fold change /veh 11764098_at / RFU SAMD14 (11745864_x_at) / Fold change /veh SAMD14 (11745864_x_at) / RFU NPB (11741838_a_at) / Fold change /veh NPB (11741838_a_at) / RFU TMPRSS6 (11731388_a_at) / Fold change /veh TMPRSS6 (11731388_a_at) / RFU KRTAP10-2 (11738614_at) / Fold change /veh KRTAP10-2 (11738614_at) / RFU ARHGAP8 /// PRR5-ARHGAP8 (11727945_x_at) / Fold change /veh ARHGAP8 /// PRR5-ARHGAP8 (11727945_x_at) / RFU KRTAP5-7 /// NADSYN1 (11734609_at) / Fold change /veh KRTAP5-7 /// NADSYN1 (11734609_at) / RFU RASL12 (11751679_a_at) / Fold change /veh RASL12 (11751679_a_at) / RFU CDKN2B (11736163_a_at) / Fold change /veh CDKN2B (11736163_a_at) / RFU PRF1 (11729649_at) / Fold change /veh PRF1 (11729649_at) / RFU, ZNF638 /// ZNF638-IT1 / Fold change vs veh, ZNF638 /// ZNF638-IT1 / RFU, PANK3 / Fold change vs veh, PANK3 / RFU, SH3YL1 / Fold change vs veh, SH3YL1 / RFU, ZEB2 / Fold change vs veh, ZEB2 / RFU, NRIP1 / Fold change vs veh, NRIP1 / RFU, PTTG1IP / Fold change vs veh, PTTG1IP / RFU, CAPN2 / Fold change vs veh, CAPN2 / RFU, MED14 / Fold change vs veh, MED14 / RFU, SNORA58 / Fold change vs veh, SNORA58 / RFU, C1orf63 / Fold change vs veh, C1orf63 / RFU, LRRFIP1 / Fold change vs veh, LRRFIP1 / RFU, NDUFAF7 / Fold change vs veh, NDUFAF7 / RFU, SLC12A2 / Fold change vs veh, SLC12A2 / RFU, IBTK / Fold change vs veh, IBTK / RFU, ESF1 / Fold change vs veh, ESF1 / Fold change vs veh, TMEM50B / RFU, TAOK1 / Fold change vs veh, TAOK1 / RFU, ACBD3 / Fold change vs veh, ACBD3 / RFU, TMA16 / Fold change vs veh, TMA16 / RFU, RWDD3 / Fold change vs veh, RWDD3 / RFU, BCAT1 / Fold change vs veh, BCAT1 / RFU, EDEM3 / Fold change vs veh, EDEM3 / RFU, TMEM33 / Fold change vs veh, TMEM33 / RFU, WDR75 / Fold change vs veh, WDR75 / RFU, AHCTF1 / Fold change vs veh, AHCTF1 / RFU, TFRC / Fold change vs veh, TFRC / RFU, ZDHHC17 / Fold change vs veh, ZDHHC17 / RFU, NOM1 / Fold change vs veh, NOM1 / RFU, ARL8B / Fold change vs veh, ARL8B / RFU, ZBTB11 / Fold change vs veh, ZBTB11 / RFU, TAMM41 / Fold change vs veh, TAMM41 / RFU, KIAA1704 /// LOC100996395 / Fold change vs veh, KIAA1704 /// LOC100996395 / RFU, ING1 / Fold change vs veh, ING1 / RFU, TRMT61B / Fold change vs veh, TRMT61B / RFU, FUBP3 / Fold change vs veh, FUBP3 / RFU, TP53 / Fold change vs veh, TP53 / RFU, TNKS2 / Fold change vs veh, TNKS2 / RFU, ZFP14 / Fold change vs veh, ZFP14 / RFU, ACTR2 / Fold change vs veh, ACTR2 / RFU, PPP3R1 / Fold change vs veh, PPP3R1 / RFU, PIK3R1 / Fold change vs veh, PIK3R1 / RFU, HNRNPA1 / Fold change vs veh, HNRNPA1 / RFU, RNF170 / Fold change vs veh, RNF170 / RFU, ZNF28 / Fold change vs veh, ZNF28 / RFU, RNGTT / Fold change vs veh, RNGTT / RFU, OGT / Fold change vs veh, OGT / RFU, BRD1 / Fold change vs veh, BRD1 / RFU, MARS / Fold change vs veh, MARS / RFU, ZNF655 / Fold change vs veh, ZNF655 / RFU, FAHD1 / Fold change vs veh, FAHD1 / RFU, BDP1 / Fold change vs veh, BDP1 / RFU, LRRCC1 / Fold change vs veh, LRRCC1 / RFU, ARID1A / Fold change vs veh, ARID1A / RFU, ZNF146 / Fold change vs veh, ZNF146 / RFU, ZNF330 / Fold change vs veh, ZNF330 / RFU, GPN3 / Fold change vs veh, GPN3 / RFU, C9orf123 / Fold change vs veh, C9orf123 / RFU, N4BP2L2 / Fold change vs veh, N4BP2L2 / RFU, ARFIP1 / Fold change vs veh, ARFIP1 / RFU, FAM179B / Fold change vs veh, FAM179B / RFU, BCL10 / Fold change vs veh, BCL10 / RFU, UHRF1BP1L / Fold change vs veh, UHRF1BP1L / RFU, BET1 / Fold change vs veh, BET1 / RFU, CNOT2 / Fold change vs veh, CNOT2 / RFU, ZNF268 / Fold change vs veh, ZNF268 / Fold change vs veh, ZNF507 / RFU, DGCR2 / Fold change vs veh, DGCR2 / RFU, WDSUB1 / Fold change vs veh, WDSUB1 / Fold change vs veh, HSP90B1 /// MIR3652 / RFU, ADSS / Fold change vs veh, ADSS / RFU, GK / Fold change vs veh, GK / RFU, ZNF148 / Fold change vs veh, ZNF148 / RFU, TAF9 / Fold change vs veh, TAF9 / RFU, SLC1A5 / Fold change vs veh, SLC1A5 / RFU, SLMO2 / Fold change vs veh, SLMO2 / RFU, ABCC4 / Fold change vs veh, ABCC4 / RFU, LOC101060439 /// RAP1B / Fold change vs veh, LOC101060439 /// RAP1B / RFU, RFX7 / Fold change vs veh, RFX7 / RFU, GTPBP10 / Fold change vs veh, GTPBP10 / RFU, CNEP1R1 / Fold change vs veh, CNEP1R1 / RFU, BIVM-ERCC5 /// ERCC5 / Fold change vs veh, BIVM-ERCC5 /// ERCC5 / RFU, ILF3 / Fold change vs veh, ILF3 / RFU 11762660_at / Fold change /veh 11762660_at / RFU VCAN (11757783_s_at) / Fold change /veh VCAN (11757783_s_at) / RFU DDX43 (11728927_at) / Fold change /veh DDX43 (11728927_at) / RFU KRT8 (11758188_x_at) / Fold change /veh KRT8 (11758188_x_at) / RFU NKD1 (11759106_at) / Fold change /veh NKD1 (11759106_at) / RFU SRD5A1 (11742802_a_at) / Fold change /veh SRD5A1 (11742802_a_at) / RFU TPSAB1 /// TPSB2 (11721975_s_at) / Fold change /veh TPSAB1 /// TPSB2 (11721975_s_at) / RFU GSTM3 (11746129_a_at) / Fold change /veh GSTM3 (11746129_a_at) / RFU IL23R (11737362_x_at) / Fold change /veh IL23R (11737362_x_at) / RFU TMEM51 (11727254_a_at) / Fold change /veh TMEM51 (11727254_a_at) / RFU PIWIL2 (11732686_x_at) / Fold change /veh PIWIL2 (11732686_x_at) / RFU ORM1 (11744905_x_at) / Fold change /veh ORM1 (11744905_x_at) / RFU CCDC152 (11743942_at) / Fold change /veh CCDC152 (11743942_at) / RFU ECM1 (11717891_a_at) / Fold change /veh ECM1 (11717891_a_at) / RFU IL23R (11748794_a_at) / Fold change /veh IL23R (11748794_a_at) / RFU TNFAIP8L3 (11732012_x_at) / Fold change /veh TNFAIP8L3 (11732012_x_at) / RFU MBOAT4 (11741988_at) / Fold change /veh MBOAT4 (11741988_at) / RFU 11764193_at / Fold change /veh 11764193_at / RFU TMEM53 (11763286_at) / Fold change /veh TMEM53 (11763286_at) / RFU MAGEB2 (11727129_at) / Fold change /veh MAGEB2 (11727129_at) / RFU TMEM200A (11744735_a_at) / Fold change /veh TMEM200A (11744735_a_at) / RFU CCDC152 (11751479_a_at) / Fold change /veh CCDC152 (11751479_a_at) / RFU FAM211A (11726209_a_at) / Fold change /veh FAM211A (11726209_a_at) / RFU RGS16 (11746705_a_at) / Fold change /veh RGS16 (11746705_a_at) / RFU VCAN (11755009_s_at) / Fold change /veh VCAN (11755009_s_at) / RFU RHOB (11743442_s_at) / Fold change /veh RHOB (11743442_s_at) / RFU RGS16 (11720943_a_at) / Fold change /veh RGS16 (11720943_a_at) / RFU RGS16 (11720944_at) / Fold change /veh RGS16 (11720944_at) / RFU, VPS4B / Fold change vs veh, VPS4B / RFU, CREB1 / Fold change vs veh, CREB1 / RFU, DNAJC13 / Fold change vs veh, DNAJC13 / RFU, GNAQ / Fold change vs veh, GNAQ / RFU, CDK5R1 / Fold change vs veh, CDK5R1 / RFU, ZRANB3 / Fold change vs veh, ZRANB3 / RFU, CUL4A / Fold change vs veh, CUL4A / RFU, CCNY / Fold change vs veh, CCNY / RFU, UFL1 / Fold change vs veh, UFL1 / RFU, COG3 / Fold change vs veh, COG3 / RFU, DIAPH2 / Fold change vs veh, DIAPH2 / RFU, SKA2 / Fold change vs veh, SKA2 / RFU, AFF3 / Fold change vs veh, AFF3 / RFU, LMF1 / Fold change vs veh, LMF1 / RFU, IPO11 / Fold change vs veh, IPO11 / RFU, DFFB / Fold change vs veh, DFFB / RFU, FOXP1 / Fold change vs veh, FOXP1 / RFU, CARD8 / Fold change vs veh, CARD8 / RFU, STRN3 / Fold change vs veh, STRN3 / RFU, ADK / Fold change vs veh, ADK / RFU, RASSF2 / Fold change vs veh, RASSF2 / RFU, WIPF1 / Fold change vs veh, WIPF1 / RFU, LARP1B / Fold change vs veh, LARP1B / RFU, RASA1 / Fold change vs veh, RASA1 / RFU, RB1 / Fold change vs veh, RB1 / RFU, PPFIA1 / Fold change vs veh, PPFIA1 / RFU, MAT2A / Fold change vs veh, MAT2A / RFU, CCT5 / Fold change vs veh, CCT5 / RFU, WDR92 / Fold change vs veh, WDR92 / RFU, CUX1 / Fold change vs veh, CUX1 / RFU, TTC7A / Fold change vs veh, TTC7A / RFU, TMEM135 / Fold change vs veh, TMEM135 / RFU, DEPTOR / Fold change vs veh, DEPTOR / RFU, CPM / Fold change vs veh, CPM / RFU, DNAJB6 / Fold change vs veh, DNAJB6 / RFU, CACNA2D3 / Fold change vs veh, CACNA2D3 / RFU, DTX4 / Fold change vs veh, DTX4 / RFU, TFCP2 / Fold change vs veh, TFCP2 / RFU, GMCL1 /// GMCL1P1 / Fold change vs veh, GMCL1 /// GMCL1P1 / RFU, AEBP2 / Fold change vs veh, AEBP2 / RFU, SNHG1 /// SNORD22 /// SNORD25 /// SNORD26 /// SNORD27 /// SNORD28 /// SNORD29 /// SNORD31 / Fold change vs veh, SNHG1 /// SNORD22 /// SNORD25 /// SNORD26 /// SNORD27 /// SNORD28 /// SNORD29 /// SNORD31 / Fold change (Aza/veh), C12orf56 (ProbeSet 11735607_a_at) / Fold change (ACY-1035/veh), C12orf56 (ProbeSet 11735607_a_at) / Fold change (Aza/veh), FGFR1OP (ProbeSet 11751329_s_at) / Fold change (ACY-1035/veh), FGFR1OP (ProbeSet 11751329_s_at) / Fold change (Aza/veh), VPS36 (ProbeSet 11739960_a_at) / Fold change (ACY-1035/veh), VPS36 (ProbeSet 11739960_a_at) / RFU SYPL1 (11715823_x_at) / Fold change /veh SYPL1 (11715823_x_at) / RFU IGFBP7 (11715501_s_at) / Fold change /veh IGFBP7 (11715501_s_at) / RFU REEP3 (11722064_at) / Fold change /veh REEP3 (11722064_at) / RFU IGLL1 (11728026_x_at) / Fold change /veh IGLL1 (11728026_x_at): dose or concentration left out as unconfirmed
Details: ProbeSet 11750457_a_at; LIST B

## Nc1ccc(-c2cccs2)cc1NC(=O)c1ccc2c(c1)cc(C1CC1)n2CCN1CCOCC1 [ACY-1035]
  Fold change vs veh, GTPBP10: 0.84
